Measured values from patent US7635572B2, “Methods for conducting assays for enzyme activity on protein microarrays” (Life Technologies Corporation, priority 2004, dated 2009).
Where two headings read alike, the source gives them in different places.

What was measured:
[1] = target: T1, plurality of kinases (Table 5) (Homo sapiens, UniProt P54762); experiment: Further analysis of a plurality of inhibitors and a plurality of kinases on microarray (Example IX, Table 5); assay type: biochemical;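 further: inhibition of each kinase by the inhibitors is given as a qualitative level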;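 on Inhibition level, CAMK2D: level 0 none or unclear then 1 little or marginal then 2 substantial inhibition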;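 on Inhibition level, DAPK2: level 0 no or unclear inhibition to Level 2 substantial inhibition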;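 on Inhibition level, DYRK1A: level 0 none or unclear Level 1 marginal Level 2 substantial inhibition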;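 on Inhibition level, FGFR2: level 0 none or unclear then 1 little or marginal then 2 substantial inhibition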;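 on Inhibition level, MAP3K7: level 0 none or unclear then 1 little or marginal then 2 substantial inhibition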
T1 sequence (P54762 18-984): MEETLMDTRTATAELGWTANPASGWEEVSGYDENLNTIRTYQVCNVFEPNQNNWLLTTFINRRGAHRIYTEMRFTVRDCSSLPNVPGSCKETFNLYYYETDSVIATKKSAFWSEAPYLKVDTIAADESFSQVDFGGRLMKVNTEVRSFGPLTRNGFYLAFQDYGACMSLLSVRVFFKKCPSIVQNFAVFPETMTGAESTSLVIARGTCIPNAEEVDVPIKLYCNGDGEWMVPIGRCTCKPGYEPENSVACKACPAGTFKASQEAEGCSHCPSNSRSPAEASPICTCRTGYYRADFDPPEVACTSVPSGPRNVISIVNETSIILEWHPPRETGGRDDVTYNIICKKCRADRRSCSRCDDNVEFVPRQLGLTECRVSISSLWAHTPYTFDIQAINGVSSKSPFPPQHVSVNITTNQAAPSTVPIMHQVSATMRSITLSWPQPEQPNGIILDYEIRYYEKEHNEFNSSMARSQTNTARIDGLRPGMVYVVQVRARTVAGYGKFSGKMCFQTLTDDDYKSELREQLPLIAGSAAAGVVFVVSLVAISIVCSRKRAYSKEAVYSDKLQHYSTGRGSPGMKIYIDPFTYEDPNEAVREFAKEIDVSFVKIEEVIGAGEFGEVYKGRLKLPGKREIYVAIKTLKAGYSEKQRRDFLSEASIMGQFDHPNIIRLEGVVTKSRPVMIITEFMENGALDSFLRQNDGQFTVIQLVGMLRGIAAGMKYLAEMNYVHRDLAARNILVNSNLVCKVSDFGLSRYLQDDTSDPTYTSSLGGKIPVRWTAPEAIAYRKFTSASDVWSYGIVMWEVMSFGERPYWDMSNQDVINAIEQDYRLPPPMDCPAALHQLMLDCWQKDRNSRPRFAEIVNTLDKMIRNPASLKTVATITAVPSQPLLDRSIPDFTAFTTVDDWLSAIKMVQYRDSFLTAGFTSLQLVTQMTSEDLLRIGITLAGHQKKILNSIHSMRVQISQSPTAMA

[2] = target: plurality of kinases (Table 5) (Homo sapiens, UniProt P21802); experiment: as above; assay type: biochemical
[3] = target: T2, plurality of kinases (Table 5) (Homo sapiens, UniProt O43318); experiment: as above; assay type: biochemical; conditions: plate G9
T2 sequence (O43318 1-606): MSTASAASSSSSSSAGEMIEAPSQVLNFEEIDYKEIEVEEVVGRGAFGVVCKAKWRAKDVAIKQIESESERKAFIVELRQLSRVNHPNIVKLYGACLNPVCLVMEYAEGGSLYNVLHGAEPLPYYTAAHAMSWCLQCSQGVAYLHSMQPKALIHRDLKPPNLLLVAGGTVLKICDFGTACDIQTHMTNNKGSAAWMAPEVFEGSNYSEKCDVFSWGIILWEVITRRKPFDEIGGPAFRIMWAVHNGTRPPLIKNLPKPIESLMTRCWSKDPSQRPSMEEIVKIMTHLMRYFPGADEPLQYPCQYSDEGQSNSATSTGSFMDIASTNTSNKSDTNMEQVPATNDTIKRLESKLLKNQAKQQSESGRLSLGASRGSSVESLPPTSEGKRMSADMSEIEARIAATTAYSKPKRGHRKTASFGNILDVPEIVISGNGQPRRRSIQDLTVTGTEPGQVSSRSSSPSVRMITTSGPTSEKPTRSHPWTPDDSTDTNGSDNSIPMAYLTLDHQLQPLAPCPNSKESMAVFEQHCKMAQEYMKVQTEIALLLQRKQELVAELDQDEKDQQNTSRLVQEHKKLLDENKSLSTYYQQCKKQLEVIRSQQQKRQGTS

[4] = target: plurality of kinases (Table 5) (Homo sapiens, UniProt Q13627); experiment: as above; assay type: biochemical; conditions: plate G6
[5] = target: plurality of kinases (Table 5) (Homo sapiens, UniProt Q9UIK4); experiment: as above; assay type: biochemical; conditions: plate H3
[6] = target: plurality of kinases (Table 5) (Homo sapiens, UniProt Q13557); experiment: as above; assay type: biochemical; conditions: plate B1; inhibitor 100 uM
[7] = target: EPHB3 (Homo sapiens, UniProt P54753); experiment: Dose-response analysis on 10-well kinase microarray (Example III, FIG. 4); assay type: biochemical; conditions: different inhibitor concentration in each well; substrate MBP, histone, casein
Experimental: (§1) Microarrays were prepared with 10 wells/slide, wherein the kinases EPHB3, FYN, and PRKCD and their substrate were immobilized in each well. The slide was coated with substrate essentially as described in section 6.1. Subsequently, a gasket with 10 openings was applied to the surface of the slide thereby creating 10 wells, i.e., the gasket provides the barriers between the wells. The accession numbers for the different kinases in the NCBI database are: for FYN: NM_002037; for PRKCD: NM_006254; and for EPHB3: NM_004443.

[8] = test system: 39 kinases (Table 4); experiment: Global specificity profiling, single point inhibition on kinase microarrays (Example VII); assay type: biochemical; conditions: substrates histone, casein, MBP, polyEY, control 2% DMSO
Experimental: (§2) To assess the application of microarray assays for compound profiling, seven known inhibitors (see Table of inhibitors used in global specificity profiling experiment) and one control (2% DMSO) were tested on microarrays printed with a group of kinases (as well as positive and negative controls). […] Twelve spots of each kinase or control were printed on each array, and three arrays were used for each inhibitor. A mixture of generic kinase substrates (histone, casein, MBP, and polyEY) was used in the assay. The average of all signals from the same inhibitor or control experiment was calculated.
(§3) To expedite data analysis regarding the kinase families that are inhibited by a particular […], a graphical representation can be constructed of inhibition data for substrates in such a manner that phylogenetically related kinases can be spatially arranged on the graphical representation.

[9] = test system: 50 different human kinases; experiment: Inhibitor specificity profiling on kinase microarray (Example II, FIG. 3); conditions: 100 μm inhibitor; substrate mixture of MBP, histone and casein; versus control without inhibitor
Experimental: 1 mL of kinase assay buffer for every 12 glass slides to be probed is prepared. 6 μL of gamma-AT^33P (10 μCi/μL) are added to the assay buffer. The slides are placed in 50 mL conical tubes, laying flat, proteins facing up. 70 μL to 150 μL of the kinase assay buffer with gamma-AT^33P are added onto each slide. Using tweezers, the slide is covered with a hybridization slip, making sure that the solution completely covers the microarray. The conical tube is then closed and placed in a 30° C. incubator. Care should be taken that the slide is laying flat. The reaction is then incubated for 90 minutes. Subsequently, the tubes are removed from the incubator. Approximately 40 mL of dH2O are added to each tube and, using the tweezers, the hybridization slip is removed, the tube is closed and inverted several times for 1-2 minutes to rinse the slide inside the conical tube. The wash solution is then discarded. Approximately 40 mL of dH2O are added again to each tube, the tubes are closed and inverted several times for 1-2 minutes, the wash solution is discarded. The slides are then removed from the tubes and place in a slide box and centrifuged at 4000 rpm for 1-2 minutes.
A phosphor screen (suitable for ^33P) is re-activated for each membrane by exposing it to light for at least 30 minutes. […]

[10] = target: T3, FYN (Homo sapiens, UniProt P06241); experiment: Global specificity profiling, single point inhibition on kinase microarrays (Example VII); assay type: biochemical; conditions: substrates histone, casein, MBP, polyEY
Experimental: as §2, §3

[11] = target: T3, FYN; experiment: Dose-response analysis on 10-well kinase microarray (Example III, FIG. 4); assay type: biochemical; conditions: different inhibitor concentration in each well; substrate MBP, histone, casein
Experimental: as §1, with “wells.” for “wells. The accession numbers for the different kinases in the NCBI database are: for FYN: NM_002037; for PRKCD: NM_006254; and for EPHB3: NM_004443.”

plurality of kinases (Table 5) (Homo sapiens, UniProt Q9UIK4), sequence (Q9UIK4 whole entry): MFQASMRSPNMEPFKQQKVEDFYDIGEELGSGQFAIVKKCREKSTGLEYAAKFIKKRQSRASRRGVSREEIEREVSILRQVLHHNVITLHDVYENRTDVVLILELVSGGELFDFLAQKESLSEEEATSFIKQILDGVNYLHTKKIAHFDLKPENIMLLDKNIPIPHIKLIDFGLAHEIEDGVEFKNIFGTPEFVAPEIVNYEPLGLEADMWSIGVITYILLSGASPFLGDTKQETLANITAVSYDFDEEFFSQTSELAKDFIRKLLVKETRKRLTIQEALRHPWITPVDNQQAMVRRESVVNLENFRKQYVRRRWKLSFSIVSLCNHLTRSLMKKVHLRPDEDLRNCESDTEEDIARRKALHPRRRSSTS
plurality of kinases (Table 5) (Homo sapiens, UniProt P21802), sequence (P21802 22-821): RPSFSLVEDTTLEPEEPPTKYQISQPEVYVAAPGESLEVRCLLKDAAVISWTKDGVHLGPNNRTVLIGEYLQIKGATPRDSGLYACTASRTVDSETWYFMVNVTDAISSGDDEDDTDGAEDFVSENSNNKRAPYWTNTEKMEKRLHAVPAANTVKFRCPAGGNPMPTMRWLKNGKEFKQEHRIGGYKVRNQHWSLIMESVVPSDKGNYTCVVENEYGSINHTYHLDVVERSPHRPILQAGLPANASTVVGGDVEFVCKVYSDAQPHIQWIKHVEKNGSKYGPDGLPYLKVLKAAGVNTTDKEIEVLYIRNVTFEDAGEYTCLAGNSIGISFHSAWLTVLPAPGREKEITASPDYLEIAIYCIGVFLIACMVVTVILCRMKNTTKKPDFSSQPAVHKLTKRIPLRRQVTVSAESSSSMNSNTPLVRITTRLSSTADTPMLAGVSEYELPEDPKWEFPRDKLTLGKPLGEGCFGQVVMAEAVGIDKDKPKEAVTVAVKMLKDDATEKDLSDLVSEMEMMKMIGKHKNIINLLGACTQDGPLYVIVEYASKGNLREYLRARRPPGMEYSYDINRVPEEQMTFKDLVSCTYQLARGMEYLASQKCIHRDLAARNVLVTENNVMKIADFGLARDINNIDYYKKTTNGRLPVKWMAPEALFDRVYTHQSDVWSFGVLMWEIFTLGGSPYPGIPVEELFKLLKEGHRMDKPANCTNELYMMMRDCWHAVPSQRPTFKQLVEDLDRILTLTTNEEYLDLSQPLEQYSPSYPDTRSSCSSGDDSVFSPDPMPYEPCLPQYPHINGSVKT
plurality of kinases (Table 5) (Homo sapiens, UniProt Q13557), sequence (Q13557 whole entry): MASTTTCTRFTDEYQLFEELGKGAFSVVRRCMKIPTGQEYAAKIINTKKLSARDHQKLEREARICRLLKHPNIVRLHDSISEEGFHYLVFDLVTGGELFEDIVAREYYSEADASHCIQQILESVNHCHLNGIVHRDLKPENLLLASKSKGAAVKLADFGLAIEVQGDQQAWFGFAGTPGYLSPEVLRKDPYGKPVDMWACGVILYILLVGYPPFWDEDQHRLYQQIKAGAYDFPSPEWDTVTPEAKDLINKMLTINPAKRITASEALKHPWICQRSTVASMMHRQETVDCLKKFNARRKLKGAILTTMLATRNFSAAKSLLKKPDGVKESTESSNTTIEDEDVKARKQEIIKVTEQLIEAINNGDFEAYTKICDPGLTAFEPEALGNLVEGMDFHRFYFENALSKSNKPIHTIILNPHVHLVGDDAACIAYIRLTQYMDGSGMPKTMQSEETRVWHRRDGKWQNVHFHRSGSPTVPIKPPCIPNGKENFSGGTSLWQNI
T3 sequence (P06241 whole entry): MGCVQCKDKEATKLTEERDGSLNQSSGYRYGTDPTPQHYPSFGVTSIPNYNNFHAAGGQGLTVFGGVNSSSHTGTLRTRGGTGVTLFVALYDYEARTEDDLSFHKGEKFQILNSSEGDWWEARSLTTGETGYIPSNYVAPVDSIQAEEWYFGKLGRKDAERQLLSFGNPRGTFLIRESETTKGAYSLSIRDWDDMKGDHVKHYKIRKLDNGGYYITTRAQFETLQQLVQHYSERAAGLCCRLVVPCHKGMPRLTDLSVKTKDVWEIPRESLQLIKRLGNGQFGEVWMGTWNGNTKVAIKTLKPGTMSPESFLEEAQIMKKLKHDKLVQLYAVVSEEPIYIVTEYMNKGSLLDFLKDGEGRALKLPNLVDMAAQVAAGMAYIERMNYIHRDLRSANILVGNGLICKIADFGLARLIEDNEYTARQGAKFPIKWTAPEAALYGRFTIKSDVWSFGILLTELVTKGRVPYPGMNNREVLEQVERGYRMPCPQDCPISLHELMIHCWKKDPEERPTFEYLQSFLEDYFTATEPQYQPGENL
EPHB3, sequence (P54753 34-998): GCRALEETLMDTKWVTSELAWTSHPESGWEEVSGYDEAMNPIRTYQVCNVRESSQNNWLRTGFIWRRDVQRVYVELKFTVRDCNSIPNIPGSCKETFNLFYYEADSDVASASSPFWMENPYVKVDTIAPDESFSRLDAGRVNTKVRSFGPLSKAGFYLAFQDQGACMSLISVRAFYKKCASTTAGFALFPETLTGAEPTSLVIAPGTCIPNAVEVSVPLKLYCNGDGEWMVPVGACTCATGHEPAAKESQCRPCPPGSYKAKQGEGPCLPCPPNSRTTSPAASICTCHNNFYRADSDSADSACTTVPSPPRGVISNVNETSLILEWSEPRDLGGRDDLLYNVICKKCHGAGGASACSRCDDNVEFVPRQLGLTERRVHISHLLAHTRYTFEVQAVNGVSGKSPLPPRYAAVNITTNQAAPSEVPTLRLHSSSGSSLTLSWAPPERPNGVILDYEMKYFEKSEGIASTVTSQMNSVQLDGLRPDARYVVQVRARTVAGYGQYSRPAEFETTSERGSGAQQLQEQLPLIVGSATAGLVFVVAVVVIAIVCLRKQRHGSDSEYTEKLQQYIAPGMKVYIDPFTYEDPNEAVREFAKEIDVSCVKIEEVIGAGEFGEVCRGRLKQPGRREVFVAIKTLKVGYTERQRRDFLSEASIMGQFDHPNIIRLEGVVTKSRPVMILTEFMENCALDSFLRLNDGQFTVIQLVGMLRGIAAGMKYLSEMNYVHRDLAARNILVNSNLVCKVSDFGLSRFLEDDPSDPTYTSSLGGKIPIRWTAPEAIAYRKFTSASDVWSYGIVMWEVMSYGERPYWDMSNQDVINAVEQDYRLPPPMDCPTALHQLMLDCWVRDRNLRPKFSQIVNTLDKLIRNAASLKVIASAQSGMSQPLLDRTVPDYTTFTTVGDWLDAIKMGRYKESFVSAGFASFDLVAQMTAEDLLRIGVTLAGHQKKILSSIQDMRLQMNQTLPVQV

| Inhibition level, MAP3K7 ([3]; inhibitor 100 uM) | Inhibition level, DYRK1A ([4]; inhibitor 100 uM) | Compound | Inhibition level, EPHB1 ([1]; plate B8, inhibitor 100 uM) | Inhibition level, FGFR2 ([2]; plate B4, inhibitor 100 uM) | Inhibition level, FGFR2 ([2]; plate G8, inhibitor 100 uM) | Inhibition level, DAPK2 ([5]; inhibitor 100 uM) | further results |
| --- | --- | --- | --- | --- | --- | --- | --- |
| 1 | 2 | O=c1c(-c2ccc(O)cc2)coc2cc(O)cc(O)c12 [Genistein] | 1 | 2 | 2 | 2 | Inhibition level, EPHB1 ([1]; plate B8, Genistein, conc. not given): 0; Inhibition level, FGFR2 ([2]; plate B4, Genistein, conc. not given): 1; Inhibition level, FGFR2 ([2]; plate G8, Genistein <3.7 mM): 0; Inhibition level, MAP3K7 ([3]; Genistein <3.7 mM): 0; Inhibition level, DYRK1A ([4]; Genistein <3.7 mM): 1; Inhibition level, DAPK2 ([5]; Genistein, conc. not given): 0 |
| 2 | 2 | O=S(=O)(NCCNC/C=C/c1ccc(Br)cc1)c1cccc2cnccc12 [H-89] | 1 | 2 | 2 | 2 | Inhibition level, CAMK2D [6]: 0 |
| 2 | 1 | CC(C)(C)n1nc(-c2ccc(Cl)cc2)c2c(N)ncnc21 [PP2] | 2 | 2 | 2 | 2 | inhibition of EPHB3 (dose-response curve) [7]: strongly inhibits; observed specificity (percentage-of-inhibition data for 39 kinases) [8]: primarily inhibited tyrosine kinases; inhibition of tyrosine kinases [9]: strongly inhibited |
| – | – | O=c1c(O)c(-c2ccc(O)c(O)c2)oc2cc(O)cc(O)c12 [Quercetin] | 0 | 0 | 0 | 0 | – |
| 2 | 2 | Cn1cc(C2=C(c3cn(CCCSC(=N)N)c4ccccc34)C(=O)NC2=O)c2ccccc21 [Ro-31-8220] | 0 | 2 | 2 | 2 | Inhibition level, EPHB1 ([1]; plate B8, Ro-31-8220, conc. not given): 2; Inhibition level, FGFR2 ([2]; plate B4, Ro-31-8220, conc. not given): 0; Inhibition level, FGFR2 ([2]; plate G8, Ro-31-8220 90 uM): 2; Inhibition level, MAP3K7 ([3]; Ro-31-8220 90 uM): 2; Inhibition level, DYRK1A ([4]; Ro-31-8220 90 uM): 0; Inhibition level, DAPK2 ([5]; Ro-31-8220, conc. not given): 2; observed specificity (percentage-of-inhibition data for 39 kinases) [8]: more specifically targeted the serine-threonine kinases |
| – | – | CN[C@@H]1C[C@H]2O[C@@](C)([C@@H]1OC)n1c3ccccc3c3c4c(c5c6ccccc6n2c5c31)C(=O)NC4 [Staurosporine] | – | – | – | – | Inhibition level, EPHB1 [1]: 2; Inhibition level, DAPK2 ([5]; Staurosporine, conc. not given): 2; inhibition of FYN in global specificity profiling [10]: inhibited; inhibition of FYN (dose-response curve) [11]: strongly inhibits |

| Compound | Inhibition level, MAP3K7 ([3]; inhibitor 100 uM) | Inhibition level, DYRK1A ([4]; inhibitor 100 uM) | Inhibition level, EPHB1 ([1]; plate B8, inhibitor 100 uM) | Inhibition level, FGFR2 ([2]; plate B4, inhibitor 100 uM) | Inhibition level, FGFR2 ([2]; plate G8, inhibitor 100 uM) | Inhibition level, DAPK2 ([5]; inhibitor 100 uM) | further results |
| --- | --- | --- | --- | --- | --- | --- | --- |
| N#C/C(=C/c1ccc(O)c(O)c1)C(=O)NCc1ccccc1 [AG 490] | 0 | 2 | 0 | 2 | 2 | 2 | – |
| COc1cc2ncnc(Nc3cccc(Cl)c3)c2cc1OC [AG 1478] | 0 | 0 | 2 | 2 | 2 | 0 | – |
| CC(=O)c1c(O)c(C)c(O)c(Cc2c(O)c3c(c(C(=O)/C=C/c4ccccc4)c2O)OC(C)(C)C=C3)c1O [Rottlerin (Mallotoxin)] | 2 | 0 | 1 | 0 | 2 | 1 | Inhibition level, CAMK2D [6]: 2 |
